Source: patent US20190300857A1, “UNDIFFERENTIATED STEM CELL-REMOVING AGENT, AND METHOD FOR REMOVING UNDIFFERENTIATED STEM CELLS” (KEIO UNIVERSITY, priority 2016, published 2019)

Assays:
Type in all cases: cell-based
[1] = system: 253G4: human induced pluripotent stem cell (human iPS cell) line; experiment: Culture of undifferentiated stem cell line in Orlistat-containing medium, ALP staining of living cells; conditions: Orlistat 0, 2, 4, 6, 8, 10 μM, 72 hours, StemFit or mTeSR1, FIG. 3
Description: (§1) Orlistat (manufactured by Sigma, 04139) was added into StemFit medium (manufactured by AJINOMOTO) or mTeSR1 (manufactured by Stem Cell Technologies) so that each of a final concentration became concentrations as shown in FIG. 3 (2 μM, 4 μM, 6 μM, 8 μM, and 10 μM). Therefore a culture medium according to one embodiment of the present invention was obtained. The following three cell lines were cultured for 72 hours in each of a culture medium not containing Orlistat (0 μM) and the culture media containing Orlistat at each of the above final concentrations. • 253G4: human induced pluripotent stem cell (human iPS cell) line • Ffl14: human induced pluripotent stem cell (human iPS cell) line • H9: human embryonic stem cell (human ES cell) line In regard to the activity of alkaline phosphatase (ALP) that the cells have, after 72 hours of culture, AP staining was performed by color development with […] (registered trademark) alkaline phosphatase staining kit (Sigma 86-R), and cells stained red were confirmed as living cells.

[2] = system: Ffl14: human induced pluripotent stem cell (human iPS cell) line; experiment: as above; conditions: Orlistat 0, 2, 4, 6, 8, 10 μM, 72 hours, StemFit or mTeSR1, FIG. 3
Description: as §1

[3] = system: H9: human embryonic stem cell (human ES cell) line; experiment: as above; conditions: Orlistat 0, 2, 4, 6, 8, 10 μM, 72 hours, StemFit or mTeSR1, FIG. 3
Description: as §1

[4] = system: human iPS cell line (253G4); experiment: Culture of human iPS cell line with Orlistat with or without palmitic acid, LIVE/DEAD Assay; conditions: Orlistat 0, 2, 6, 8 μM, 72 hours, FIGS. 13 to 14
Description: Orlistat (manufactured by Sigma, 04139) was added into StemFit medium (manufactured by AJINOMOTO) or mTeSR1 (manufactured by Stem Cell Technologies) so that each of a final concentration became concentrations as shown in FIG. 13 (2 μM, 6 μM, and 8 μM). Therefore a culture medium according to one embodiment of the present invention was obtained. Media obtained by adding palmitic acid (final concentration 50 μM), carnitine (final concentration 0.5 mM), and BSA (final concentration 8.3 μM) to each of the culture medium (0 μM) not containing Orlistat and the culture media containing Orlistat at the above final concentrations; and media obtained by adding only carnitine (final concentration 0.5 mM) and BSA (final concentration 8.3 μM) thereto were prepared. The human iPS cell line (253G4) was cultured for 72 hours in each of the above-mentioned media. After 72 hours of culture, live cells were detected with LIVE/DEAD Assay (L3224, manufactured by Thermo Fisher Scientific).

[5] = system: undifferentiated stem cells expressing OCT4 in cell mixture of cardiomyocytes derived from human iPS cells and human iPS cells; experiment: Culture of cell mixture of iPS-derived cardiomyocytes and iPS cells in Orlistat-containing medium, OCT4 immunostaining; conditions: Orlistat 10 μM (Orlistat(+)); 72 hours; StemFit or mTeSR1; FIGS. 7 to 8
Description: A cell mixture in a state in which purified and refined cardiomyocytes induced from human iPS cells and human iPS cells coexisted was prepared according to the procedure described above. In the cell mixture, immunostaining against OCT4 was performed. The cell mixture was cultured for 72 hours in StemFit medium (manufactured by AJINOMOTO) or mTeSR1 (manufactured by Stem Cell Technologies) containing Orlistat at a final concentration of 10 μM (Orlistat(+)). As a control, culture was carried out in the same manner in StemFit medium (manufactured by AJINOMOTO) or mTeSR1 (manufactured by Stem Cell Technologies) not containing Orlistat (Orlistat(−)). After culturing for 72 hours, cells expressing OCT4 were detected by immunostaining. In addition, the results of DAPI staining are also shown together. The results of three replicate tests in which the number of colonies of cells expressing Oct4 was quantified based on the results are shown in FIG. 8.

CCCCCCCCCCC[C@@H](C[C@@H]1OC(=O)[C@H]1CCCCCC)OC(=O)[C@H](CC(C)C)NC=O [Orlistat, N-formyl-L-leucine-(1S)-1-[[(2S,3S)-3-hexyl-4-oxo-2-oxetanyl]methyl]dodecyl ester]
cell death of undifferentiated stem cells (ALP staining) [1]: cell death of each undifferentiated stem cell was induced in an Orlistat concentration-dependent manner | cell death of undifferentiated stem cells (ALP staining) [2]: cell death of each undifferentiated stem cell was induced in an Orlistat concentration-dependent manner | cell death of undifferentiated stem cells (ALP staining) [3]: cell death of each undifferentiated stem cell was induced in an Orlistat concentration-dependent manner | cell death of human iPS cells (LIVE/DEAD Assay) ([4]; culture medium (BSA): only carnitine 0.5 mM and BSA 8.3 μM added): cell death of human iPS cells was induced in an Orlistat concentration-dependent manner | cell death of human iPS cells (LIVE/DEAD Assay) ([4]; culture medium (PA-BSA): palmitic acid 50 μM, carnitine 0.5 mM and BSA 8.3 μM added): cell death of human iPS cells was suppressed | residual undifferentiated stem cells expressing OCT4 [5]: no residual undifferentiated stem cells expressing OCT4 were detected
